The term solubility denotes the dissolved amount per volume that the medium holds. A lower solubility goes with a poorly soluble substance. For orientation: logP means a log measure of how a compound divides between an organic and an aqueous phase. A lower logP goes with a more hydrophilic compound.

In brackets after ≈: the same amount, converted by molar mass.

Conditions in the first series: not given
`CCC(Br)(CC)C(=O)NC(N)=O` gave a solubility of 1.4 mM (≈ 333 µg/mL).
In turn, `COc1c2c(cc3oc(=O)ccc13)OC(C)(C)C=C2` yielded a solubility of 0.155 mM (≈ 40 µg/mL).
In turn, `COCc1ccc([N+](=O)[O-])o1` registered a solubility of 70 mM (≈ 11000 µg/mL).
In the case of `CCC(C)(CC)OC(N)=O`, the solubility was found to be 27.5 mM (≈ 4000 µg/mL).
`O=P([O-])([O-])O[C@@H]1[C@@H](O)[C@H](O)[C@@H](O)[C@H](O)[C@@H]1O`: the solubility was found to be 1280 mM.
`O=C(C1CCCCC1)N1CC(=O)N2CCc3ccccc3C2C1` (stereo unspecified) registered a solubility of 1.28 mM (≈ 400 µg/mL).
In turn, `CCN(CC)C(=O)CSc1ccc(Cl)nn1` gave a solubility of 19.2 mM (≈ 5000 µg/mL).
Still for that read-out and setting: under `CNC(=S)NCO` stands 832 mM (≈ 100000 µg/mL); under `Cc1csc(NS(=O)(=O)c2ccc(N)cc2)n1`, 7.43 mM (≈ 2000 µg/mL).
As for `COc1ccc(C(CN(C)C)C2(O)CCCCC2)cc1.Cl` (stereo unspecified), the logP is 0.43.
`CC[C@@]12CCCN3CC[C@]4(c5cccc(OC)c5N(C(C)=O)[C@@H]4CC1)[C@H]32`: the solubility was found to be 47.1 mM (≈ 16700 µg/mL).
Consider `O=C[C@H](O)C(O)[C@H](O)CO` (stereo in doubt), for which the solubility is 3700 mM (≈ 555000 µg/mL).
On the same count and under the same terms, the same measure for `CN(CCO)c1nc2c(c(=O)n(C)c(=O)n2C)n1C`: 224 mM (≈ 60000 µg/mL); for `O=C(c1ccccc1O)N1CCOCC1`: 19.8 mM (≈ 4100 µg/mL); for `CC(=O)N/N=C/c1ccc([N+](=O)[O-])o1`: 2.54 mM (≈ 500 µg/mL).
As to `O=C1NCCN1/N=C/c1ccc([N+](=O)[O-])o1`, the solubility was 0.439 mM (≈ 98.5 µg/mL).
Turning to `CCC1(N2CCCCC2)C(=O)NC(=O)NC1=O`, the solubility is 6.98 mM (≈ 1670 µg/mL).

The series is the same for the next values; noted with them: 20 °C.
`C[C@H](O)[C@@H](O)c1cnc2[nH]c(N)nc(=O)c2n1` registered a solubility of 2.95 mM (≈ 700 µg/mL).

Staying with this series, now noted: 23 °C.
`COc1cc([C@@H]2c3cc4c(c(O)c3C[C@H]3COC(=O)[C@@H]32)OCO4)cc(OC)c1OC` registered a solubility of 0.0314 mM (≈ 13 µg/mL).

The series is the same for the next values; noted with them: 25 °C.
`Oc1c(Cl)cc(Cl)cc1Sc1cc(Cl)cc(Cl)c1O` displayed a solubility of 0.0112 mM (≈ 4 µg/mL).
`O=C1C(Br)=CC(=NCl)C=C1Br`: the solubility worked out at 0.196 mM (≈ 58.8 µg/mL).
In the case of `C#CC1(OC(N)=O)CCCCC1`, the solubility stood at 15 mM (≈ 2500 µg/mL).
As to `CNC[C@H](O)[C@@H](O)[C@H](O)[C@H](O)CO`, the solubility came to 3620 mM (≈ 707000 µg/mL).
`O=C1OC(CN2CCOCC2)CN1N=Cc1ccc([N+](=O)[O-])o1` (stereo unspecified): the solubility was 2.31 mM (≈ 750 µg/mL).
In turn, `CC(=O)OC(C)(C)C` gave a solubility of 71.7 mM (≈ 8330 µg/mL).
`CCCC(C)(COC(N)=O)COC(=O)NC(C)C` (stereo unspecified) gave a solubility of 1.15 mM (≈ 300 µg/mL).
For `O=C(CCCN1CCC(O)(c2ccc(Cl)cc2)CC1)c1ccc(F)cc1`, the solubility was determined as 0.0372 mM (≈ 14 µg/mL).
The same measure, in the same setting: the same measure for `NC(=S)Nc1cccc2ccccc12`: 2.97 mM (≈ 600 µg/mL); for `COc1cc([C@@H]2c3cc4c(cc3[C@H](O)[C@H]3COC(=O)[C@@H]23)OCO4)cc(OC)c1OC`: 0.241 mM (≈ 100 µg/mL); for `O=CNc1ccccc1`: 210 mM (≈ 25400 µg/mL).
In turn, `C=C(C)C(=O)C(=CC(=O)O)OC` gave a solubility of 118 mM (≈ 20000 µg/mL).
Still for that read-out and setting: under `O=C(OC(=O)c1ccccc1)c1ccccc1` stands 0.0442 mM (≈ 10 µg/mL); under `NC(=O)c1cccnc1`, 4090 mM (≈ 500000 µg/mL).
Molecule `C[C@@H]1C(=O)OC[C@H]2[C@@H]1CC[C@@H]2C` returned a solubility of 11.9 mM (≈ 2000 µg/mL).
Consider `CO[C@H]1[C@H](O)[C@H](O[C@H]2CC[C@@]3(C=O)[C@H](CC[C@@H]4[C@@H]3CC[C@]3(C)[C@@H](C5=CC(=O)OC5)CC[C@]43O)C2)O[C@@H](C)[C@@H]1O`, for which the solubility stood at 0.729 mM (≈ 400 µg/mL).
For the molecule `Cn1c(=O)c2c(ncn2CC(O)CO)n(C)c1=O` (stereo unspecified), the solubility was 1310 mM (≈ 333000 µg/mL).
Molecule `CC(=O)Nc1c(I)c(C(=O)N[C@H]2C(O)O[C@H](CO)[C@@H](O)[C@@H]2O)c(I)c(N(C)C(C)=O)c1I` (stereo partly specified) displayed a solubility of 634 mM (≈ 500000 µg/mL).

Still in this series, the particulars now being: 27 °C.
`NC(=S)NC(N)=S`: the solubility worked out at 20 mM (≈ 2700 µg/mL).
In turn, `O=C(O)/C=C\C(=O)Nc1ccccc1` had a solubility of 5.23 mM (≈ 1000 µg/mL).

The series is the same for the next values; noted with them: 28 °C.
For the molecule `Nc1ccc(S(=O)(=O)c2cnc(N)s2)cc1`, the solubility is 1.57 mM (≈ 400 µg/mL).

Staying with this series, now noted: 29 °C.
The molecule `NC(Cc1n[nH]c2ccccc12)C(=O)O` (stereo unspecified) displayed a solubility of 39 mM (≈ 8000 µg/mL).

These data come from the OPERA property sets (Mansouri et al. 2018).
